Patent publication US6541463B1, “Inhibitors of type 5 and type 3 17β-hydroxysteroid dehydrogenase and methods for their use” (Endorecherche, Inc., priority 1998, dated 2003)

System: Shionogi mouse mammary carcinoma cells
Assay: Antiandrogenic activity: inhibition of DHT-induced proliferation of Shionogi cells
Assay type: cell-based
Protocol: The manner in which the inhibition is determined is described in “Other Tests; B-Androgenic/Antiandrogenic Activity”. Lower numbers are desirable. ND means that a determination was not done.
Androgenic/antiandrogenic activity of some preferred compounds has been measured using the Shionogi mouse mammary carcinoma cells.
Minimal essential culture medium (MEM), non-essential amino acids, and fetal calf serum were purchased from Flow Laboratories. In order to remove endogenous steroids, serum was incubated overnight at 4° C. with 1% activated charcoal (Norit A, Fisher) and 0.1% Dextran T-70 (Pharmacia). A 2-h supplementary adsorption was performed at 25° C. in order to further remove protein-bound steroids. Serum was also inactivated by a 20-min incubation at 56° C.
5α-dihydrotestosterone (DHT) was obtained from Steraloids. The antiandrogen hydroxyflutamide (OH-FLU) was kindly supplied by Drs. T. L. Nagabuschan and R. Neri (Schering Corporation, Kenilworth, U.S.A.).
Shionogi male mice bearing androgen-sensitive mammary tumors were obtained from Drs. Keishi Matsumoto, Osaka, Japan, and Yvonne Lefebvre, Ottawa, Canada. For primary culture, tumors were excised and washed in ice-cold sterile 25 mM Hepes buffer (137 mM NaCl; 5 mM KCl; 0.7 mM Na2HPO4; 10 mM glucose, pH 7.2). After mincing with scissors, the tumor minces were digested for 2 h at 37° C. in Hepes buffer containing 3.8 mg/ml collagenase (Clostridium, Boehringer), 1.5 mg/ml hyaluronidase II (Sigma), and 3% bovine serum albumin fraction V (Schwartz-Mann). Dispersed cells were collected by centrifugation (500×g for 10 min), washed twice by suspension in minimal essential medium (MEM) containing 5% dextran-coated charcoal-treated fetal calf serum (DCC-FCS), 1% non-essential amino acids, 10 IU/ml penicillin, 50 μg/ml streptomycin, and 100 nM dihydrotestosterone (DHT) (Steraloids).
Cells were plated in the same medium at a density of 75 000 cells/ml in 75 cm^2 flasks under an atmosphere of 5% carbon dioxide in air at 37° C. The medium was changed weekly. The steroids and antisteroids were dissolved in ethanol and kept in stock solutions chosen to yield final ethanol concentrations less than 0.01% in the culture medium.
Cells were subcultured at near-confidence by gentle digestion in a solution of 0.1% pancreatin (Flow Laboratories) in Hepes buffer containing 3 mM ethylenediaminetetraacetic acid (EDTA) (pH 7.2). Cells were pelleted by centrifugation, resuspended in culture medium, counted in a Coulter counter, and replated as described above. Soft agar cloning was performed as described (Stanley et al., Cell 10: 35-44, 1977) in the presence of 100 nM DHT.
Cells were plated in 24-well plates at a density of 20 000 cells/well. The indicated increasing concentrations of agents were added to triplicate dishes, and cells were grown for 10-12 days with changes of medium every 3-4 days. Cell number was measured by direct counting in a Coulter counter.
ED50 values of action of DHT and glucocorticoids were calculated according to a least-square regression as described (Rodbard, Endocrinology 94: 1427-1431, 1974). Statistical significance was calculated according to a multiple-range test (Kramer, Biometrics 12: 307-310,1956).

[1] = Table 4′, DHT-induced proliferation, E^−6 (10^−6 M)
[2] = Table 4′, DHT-induced proliferation

SMILES	Antiandrogenic Activity Shionogi, DHT E^−6 (with DHT, E^−6)	Antiandrogenic Activity Shionogi, DHT E^−7 (with DHT)	Antiandrogenic Activity Shionogi, DHT E^−6 [1] [%]	Antiandrogenic Activity Shionogi, DHT E^−7 [2] [%]
CC1=C[C@@H]2[C@H](CC[C@]3(C)C(=O)C4(CCCCC4)C[C@@H]23)[C@@]2(C)CCC(=O)C=C12 [EM-925]	−7	15	–	–
COCCOc1cc2c(cc1F)C1CCC3(C)C(CCC34CCC(C)(C)C(=O)O4)C1CC2 (stereo not shown) [EM-1393-CS]	–	–	−104	27
CC1(C)CCC2(CCC3C4CCc5cc(C(=O)OCc6ccccc6)ccc5C4CCC32C)OC1=O (stereo not shown) [EM-1398]	–	–	−37	0
COc1cc2c(cc1C(F)(F)F)C1CCC3(C)C(CCC34CCC(C)(C)C(=O)O4)C1CC2 [EM-1409, 3-Methoxy-2-trifluoromethyl-1,3,5(10)-estratrien-17(R)-spiro-2′-(5′,5′-dimethyl-6′-oxo)tetrahydropyran]	–	–	−105	−5
COCCOc1cc2c(cc1C(=O)N(C)C)C1CCC3(C)C(CCC34CCC(C)(C)C(=O)O4)C1CC2 (stereo not shown) [EM-1413-CS]	–	–	−44	–
CC1(C)CCC2(CCC3C4CCc5cc(O)c(C#N)cc5C4CCC32C)OC1=O (stereo not shown) [EM-01645]	–	–	−10	−6
CC1(C)CCC2(CCC3C4CCc5cc(O)c(C(N)=O)cc5C4CCC32C)OC1=O (stereo not shown) [EM-01660]	–	–	−51	−20
CN(C)C(=O)c1cc2c(cc1O)CCC1C2CCC2(C)C1CCC21CCC(C)(C)C(=O)O1 (stereo not shown) [EM-01661-B]	–	–	−15	3
COC(=O)c1cc2c(cc1O)CCC1C2CCC2(C)C1CCC21CCC(C)(C)C(=O)O1 (stereo not shown) [EM-01662]	–	–	−51	−11
CC12CCC3c4ccc(O)cc4CCC3C1CCC21CC=CC(=O)O1 [PB-132-140, 3-hydroxy-1,3,5(10)-estratrien-17(R)-spiro-2′-(4′,5′-dihydro-6′-oxo)pyran]	–	–	0	16
CC1CC(=O)OC2(CCC3C4CCc5cc(O)ccc5C4CCC32C)C1 [PB-132-142, 3-Hydroxy-1,3,5(10)-estratrien-17(R)-spiro-2′-(4′-methyl-6′-oxo)tetrahydropyran]	–	–	−13	0
COC(=O)C1CCC2(CCC3C4CCc5cc(O)ccc5C4CCC32C)OC1=O [PB-132-146, 3-Hydroxy-1,3,5(10)-estratrien-17(R)-2′-(5′-methoxycarbonyl-6′-oxo)tetrahydropyran]	–	–	−40	14
C=CCC1CCC2(CCC3C4CCc5cc(O)ccc5C4CCC32C)OC1=O [PB-132-152, 3-Hydroxy-1,3,5(10)-estratrien-17(R)-2′-(5′-allyl-6′-oxo)tetrahydropyran]	–	–	−19	14
